Tests used:
apoptotic Jurkat cells = test: Inhibition by the TG2 inhibitor MDC of protein crosslinking and 3B9 binding in cisplatin-treated Jurkat cells; assay type: cell-based, human; settings: 20 μg/mL cisplatin
Method: FIG. 18 depicts that La antigen is crosslinked during apoptosis. (A) Jurkat cells incubated in 20 μg/mL cisplatin were removed at specified time points and incubated for 10 min. in 1% Triton X-100 solution before 3B9 binding analysis. Data are presented as density plots of staining with 3B9 vs. 7-AAD. (B) Immunoblots of cell lysates of control and cisplatin-treated Jurkat cells were probed with 3B9 for expression of La (top panels) or actin as a loading control (bottom panels) at specified times. (C) Jurkat cells incubated in the absence or presence of increasing concentrations of cisplatin were labeled with cadaverine-biotin added at 100 μM for 48 h. Cells were stained with strepatavidin-Alexa488 and analyzed by flow cytometry. Data shown are MFI±SEM (n=3). […] Cells were analyzed at specified times (24 □, 48 ? and 72 h ▪) for sulforhodamine 101 staining. […]
Transglutaminase 2 (TG2)-mediated protein-protein crosslinking in apoptotic cells was investigated using a modification of a previously described method. […] Samples were vortexed and incubated for 5 min. before analysis by flow cytometry where fluorescence from Sytox Green and sulforhodamine were detected using FL-1 and FL-3, respectively. The degree of crosslinking in apoptotic cells was calculated as the ratio of the MFI of sulforhodamine staining in apoptotic cells to the MFI in control cells (protein crosslinking ratio). […]

Jurkat cells = test: Apomab-specific binding to cisplatin-treated Jurkat cells with TSA; assay type: cell-based, human; settings: TSA added to 10 μg/mL cisplatin, 48 h
Method: FIG. 36 depicts that the histone deacetylase inhibitor (HDACi) trichostatin A (TSA) exerts dose-dependent synergy with cisplatin to augment Apomab-specific binding to dead Jurkat cells. Jurkat cells were incubated for 48 h with 10 μg/mL cisplatin together with increasing concentrations of TSA. Cells were subjected to indirect immunofluorescence staining using Apomab or its Sal5 isotype control mAb and viability was assessed using 7-AAD. Apomab-specific binding was calculated as the Net MFI after gating on 7-AAD^+ events. Data are presented as the mean±SEM from two separate experiments. (A) Apomab-specific binding to cisplatin-treated Jurkat cells is plotted as a function of TSA concentration. […]
(§1) Apoptosis or cell death was induced by adding cytotoxic drugs to culture media at the specified concentrations. […] Control (untreated) cells had ≧90% viability determined by PI or trypan blue staining (data not shown). […]
Indirect immunofluorescence staining was performed using purified mouse antibodies at 5 μg/mL for 30 min. at room temperature (RT) in PBS followed by Alexa488-conjugated anti-mouse IgG at 2 μg/mL for 30 min. at RT in PBS. […] Cell viability was assessed by the exclusion of PI (0.5 μg/mL) and detected using the FL-2 channel (585 nm filter) or by the exclusion of 7-AAD (2 μg/mL for 15 min. at RT) and detected using the FL-3 channel (>650 nm filter). […]

PANC-1 cells [1] = test: MTS proliferation assay with TSA and gemcitabine; assay type: cell-based, human; settings: TSA alone
Method: FIG. 40 depicts that gemcitabine and TSA synergise to reduce proliferation rates among PANC-1 cells in vitro. PANC-1 cells (2×10^4 cells) were seeded in flat bottom 96-well plates overnight using phenol-free RPMI-1640 medium containing 10% FCS (medium). A serial dilution of 2×10^4 cells was used to construct a standard curve for the MTS assay. Triplicate wells were incubated with increasing concentrations of TSA (nM) with or without the addition of increasing concentrations of gemcitabine. Three identical plates were incubated for 24, 48 or 72 h then medium was decanted and fresh medium (100 μL) containing 20 μL MTS/PMS substrate was added to all wells. Assays were performed according to the manufacturer's instructions. The change in the absorbance reading over time was calculated for each condition in units of change per 12 h (upper panel), which was converted to units of cell number change per 12 h (lower panel) using a standard curve of the absorbance reading as a function of […] (r^2=0.99).

PANC-1 cells [2] = test: Cell death (7-AAD) and 3B9-specific binding after gemcitabine and TSA; assay type: cell-based, human; settings: TSA alone; data not shown
Method: FIG. 15 depicts that 3B9 binding to dead PANC-1 cells is augmented after combination treatment with gemcitabine and TSA produced additive cytotoxicity and DNA-damaging effects. PANC-1 cells were incubated with increasing concentrations of gemcitabine in the absence (clear columns) or presence of 100 ng/mL (hatched columns) or 200 ng/mL (filled columns) of TSA. Analysis was done for viability using 7-AAD (A), 3B9-specific binding (B) and DNA damage using γH2AX staining (C). Data are presented as mean±SEM from three independent experiments. Photomicrographs show PANC-1 cells treated with gemcitabine and TSA (+) or not (−), which were stained with γH2AX-specific mAb and 7-AAD (D).
PANC-1 cells (2×10^4 cells) were seeded in flat bottom 96-well plates overnight using phenol-free RPMI-1640 medium containing 10% FCS (medium). Cells were incubated with the specified concentrations of gemcitabine or TSA singly or in combination. Cells were collected (from media and EDTA detached adherent cells) and subjected to indirect immunofluorescence staining with Apomab or its Sal5 isotype control mAb and assessed for viability with 7-AAD staining. […]
as §1

Raji = test: Binding of La-specific mAb (3B9-FITC) to apoptotic human cancer cell lines, dual-colour flow cytometry; settings: 2 μM staurosporine, 20 μg/mL etoposide or 0.1 μg/mL vincristine, 3B9-FITC and PI

CN(C)c1cccc2c(S(=O)(=O)NCCCCCN)cccc12 [MDC, monodansylcadaverine]
effect on protein crosslinking (sulforhodamine crosslinking ratio) (apoptotic Jurkat cells): dose-dependent inhibitory effect

CC(/C=C/C(=O)NO)=C\[C@@H](C)C(=O)c1ccc(N(C)C)cc1 [TSA, trichostatin A]
Apomab-specific binding to dead Jurkat cells (Jurkat cells): dose-dependent increase | effect on proliferation of PANC-1 cells (PANC-1 cells [1]): inhibited proliferation | 3B9 binding in comparison with control PANC-1 cells (PANC-1 cells [2]): did not alter 3B9 binding

CC[C@]1(O)C[C@H]2CN(CCc3c([nH]c4ccccc34)[C@@](C(=O)OC)(c3cc4c(cc3OC)N(C=O)[C@H]3[C@@](O)(C(=O)OC)[C@H](OC(C)=O)[C@]5(CC)C=CCN6CC[C@]43[C@@H]65)C2)C1 [Vincristine, vincristine]
percentages of PI+ and 3B9+ events after subtraction of control (PI+ and Sal5+) events (Raji): 9.8%

From patent US20100310450A1, “METHOD OF DIAGNOSIS AND AGENTS USEFUL FOR SAME” (MEDVET SCIENCE PTY. LTD., priority 2006, published 2010)
